# Source: patent publication US10774064B2 (Cadent Therapeutics, Inc., priority 2016, dated 2020)
# Biological target: T1, small-conductance Ca2+-activated K+ channels (SK channels, subtype 2) (Homo sapiens, UniProt Q9H2S1)
# T1 construct: expressed in transfected cells; host or cells: HEK293
# Assay: whole-cell patch-clamp of ionic current through SK2 channels in HEK293 cells (SC100)
# Format: cell-based
# Conditions: whole-cell patch-clamp, HEK293 cells expressing SK2 channels; concentration that increases the basal current by 100%
# In short: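 Whole-cell patch-clamp recording of current in HEK293 cells expressing SK2 channels. SC100 is the compound concentration that increases basal current by 100%.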
row,SMILES,SC100 (μM)
1,COc1cc(NC2CCC(F)(F)CC2)nc(-n2ccc(C)n2)n1 [IN11053-005-P1],+ (+ means >1 uM)
2,"COCc1cc(NC2CCC(F)(F)CC2)nc(-n2ccc(C)n2)n1 [IN11053-007-P1, N-(4,4-difluorocyclohexyl)-6-(methoxymethyl)-2-(3-methyl-1H-pyrazol-1-yl)pyrimidin-4-amine]",+ (+ means >1 uM)
3,Cc1ccn(-c2nc(COc3ccc(C#N)cn3)cc(NC3CCC(F)(F)CC3)n2)n1 [IN11053-013-P1],++ (++ means 200 nM-1000 nM)
4,Cc1ccn(-c2nc(NC3CCC(F)(F)CC3)cc(OC(C)C)n2)n1 [IN11053-021-P1],+ (+ means >1 uM)
5,Cc1ccn(-c2nc(NC3CCC(F)(F)CC3)cc(OCc3ncco3)n2)n1 [IN11053-022-P1],+ (+ means >1 uM)
6,Cc1ccn(-c2nc(NC3CCC(F)(F)CC3)cc(OCc3cocn3)n2)n1 [IN11053-024-P1],+ (+ means >1 uM)
7,"COC(=O)NCc1cc(NC2CCC(F)(F)CC2)nc(-n2ccc(C)n2)n1 [IN11053-033-P1, methyl ((6-((4,4-difluorocyclohexyl)amino)-2-(3-methyl-1H-pyrazol-1-yl)pyrimidin-4-yl)methyl) carbamate]",+ (+ means >1 uM)
8,Cc1ccn(-c2nc(COc3ccc(C(N)=O)nn3)cc(NC3CCC(F)(F)CC3)n2)n1 [IN11053-046-P1],+++ (+++ means <200 nM)
9,C=Cc1cc(NC2CCC(F)(F)CC2)nc(-n2ccc(C)n2)n1 [IN11053-052-P1],++ (++ means 200 nM-1000 nM)
10,"CC(=O)c1cc(NC2CCC(F)(F)CC2)nc(-n2ccc(C(F)(F)F)n2)n1 [IN11053-059-P1, 1-(6-((4,4-difluorocyclohexyl)amino)-2-(3-(trifluoromethyl)-1H-pyrazol-1-yl)pyrimidin-4-yl)ethan-1-one]",+ (+ means >1 uM)
11,"OCc1cc(NC2CCC(F)(F)CC2)nc(-n2ccc(C(F)(F)F)n2)n1 [IN11053-060-P1, (6-((4,4-difluorocyclohexyl)amino)-2-(3-(trifluoromethyl)-1H-pyrazol-1-yl)pyrimidin-4-yl) methanol]",++ (++ means 200 nM-1000 nM)
12,"CC(O)c1cc(NC2CCC(F)(F)CC2)nc(-n2ccc(C(F)(F)F)n2)n1 (centres unmarked) [IN11053-062-P1, 1-(6-((4,4-difluorocyclohexyl)amino)-2-(3-(trifluoromethyl)-1H-pyrazol-1-yl)pyrimidin-4-yl)ethan-1-ol]",+ (+ means >1 uM)
13,"COCc1cc(NC2CCC(F)(F)CC2)nc(-n2ccc(C(F)(F)F)n2)n1 [IN11053-071-P1, N-(4,4-difluorocyclohexyl)-6-(methoxymethyl)-2-(3-(trifluoromethyl)-1H-pyrazol-1-yl)pyrimidin-4-amine]",+ (+ means >1 uM)
14,"COC(C)c1cc(N(C)C2CCC(F)(F)CC2)nc(-n2ccc(C(F)(F)F)n2)n1 (centres unmarked) [IN11053-073-P1, N-(4,4-difluorocyclohexyl)-6-(1-methoxyethyl)-N-methyl-2-(3-(trifluoromethyl)-1H-pyrazol-1-yl)pyrimidin-4-amine]",+ (+ means >1 uM)
15,"COC(C)c1cc(NC2CCC(F)(F)CC2)nc(-n2ccc(C(F)(F)F)n2)n1 (centres unmarked) [IN11053-076-P1, N-(4,4-difluorocyclohexyl)-6-(1-methoxyethyl)-2-(3-(trifluoromethyl)-1H-pyrazol-1-yl)pyrimidin-4-amine]",+ (+ means >1 uM)
16,"Cc1ccn(-c2cc(C(C)OC(=O)N(C)C)cc(NC3CCC(F)(F)CC3)n2)n1 (centres unmarked) [IN11054-003-P1, 1-(2-((4,4-difluorocyclohexyl)amino)-6-(3-methyl-1H-pyrazol-1-yl)pyridin-4-yl)ethyl dimethylcarbamate]",++ (++ means 200 nM-1000 nM)
17,"COC(=O)NC(C)c1cc(NC2CCC(F)(F)CC2)nc(-n2ccc(C)n2)c1 (centres unmarked) [IN11054-005-P1, methyl (1-(2-((4,4-difluorocyclohexyl)amino)-6-(3-methyl-1H-pyrazol-1-yl)pyridin-4-yl)ethyl) carbamate]",+ (+ means >1 uM)
18,Cc1ccn(-c2nc(NC3CCC(F)(F)CC3)cc(OCC(F)(F)F)n2)n1 [IN11054-011-P1],+ (+ means >1 uM)
19,Cc1ccn(-c2nc(NC3CCC(F)(F)CC3)cc(OCc3cnco3)n2)n1 [IN11054-012-P1],++ (++ means 200 nM-1000 nM)
20,"Cc1ccn(-c2cc(NC3CCC(F)(F)CC3)nc(-n3ccc(C)n3)c2)n1 [IN11054-030-P1, N-(4,4-difluorocyclohexyl)-4,6-bis(3-methyl-1H-pyrazol-1-yl)pyridin-2-amine]",+ (+ means >1 uM)
21,COc1cc(NC2CCC(F)(F)CC2)nc(-n2nc(C)cc2C)c1 [IN11054-038-P1],+ (+ means >1 uM)
22,CSc1cc(NC2CCC(F)(F)CC2)nc(-c2nc(C)cs2)n1 [IN11054-039-P1],++ (++ means 200 nM-1000 nM)
23,Cc1csc(-c2nc(NC3CCC(F)(F)CC3)cc(S(C)(=O)=O)n2)n1 [IN11054-046-P1],+ (+ means >1 uM)
24,Cc1csc(-c2nc(NC3CCC(F)(F)CC3)cc([S+](C)[O-])n2)n1 (centres unmarked) [IN11054-046-P2],++ (++ means 200 nM-1000 nM)
25,"COc1cc(NC2CCC(F)(F)CC2)nc(-n2ccc(C)n2)c1 [IN11054-054-P1, N-(4,4-difluorocyclohexyl)-4-methoxy-6-(3-methyl-1H-pyrazol-1-yl)pyridin-2-amine]",++ (++ means 200 nM-1000 nM)

row,SMILES,SC100 (μM)
1,"Cc1cc(C)n(-c2cc(C)c(CNC3CCC(F)(F)CC3)nn2)n1 [IN11054-078-P1, N-((6-(3,5-dimethyl-1H-pyrazol-1-yl)-4-methylpyridazin-3-yl)methyl)-4,4-difluorocyclohexan-1-amine]",+ (+ means >1 uM)
2,"Cc1csc(-c2nc(NC3CCC(F)(F)CC3)cc(C3CCC3)n2)n1 [IN11054-081-P1, 6-cyclobutyl-N-(4,4-difluorocyclohexyl)-2-(4-methylthiazol-2-yl)pyrimidin-4-amine]",++ (++ means 200 nM-1000 nM)
3,CCOc1cc(NC2CCC(F)(F)CC2)nc(-c2nc(C)cs2)n1 [IN11055-015-P1],+ (+ means >1 uM)
4,Cc1csc(-c2nc(NC3CCC(F)(F)CC3)cc(OC(C)C)n2)n1 [IN11055-016-P1],+ (+ means >1 uM)
5,COc1cc(NC2CCCCC2)nc(-n2nc(C)cc2C)n1 [IN11055-044-P1],+ (+ means >1 uM)
6,Cc1csc(-c2nc(NC3CCC(F)(F)CC3)cc(N(C)C)n2)n1 [IN11055-046-P1],++ (++ means 200 nM-1000 nM)
7,CNc1cc(NC2CCC(F)(F)CC2)nc(-c2nc(C)cs2)n1 [IN11055-049-P1],++ (++ means 200 nM-1000 nM)
8,COc1cc(NC2CCCC2)nc(-c2nc(C)cs2)n1 [IN11055-066-P1],+ (+ means >1 uM)
9,"Cc1csc(-c2nc(N)cc(NC3CCC(F)(F)CC3)n2)n1 [IN11055-068-P1, N4-(4,4-difluorocyclohexyl)-2-(4-methylthiazol-2-yl)pyrimidine-4,6-diamine]",+ (+ means >1 uM)
10,"COc1cc(NC2CCC(C)(C)CC2)nc(-c2nc(C)cs2)n1 [IN11055-069-P1, N-(4,4-dimethylcyclohexyl)-6-methoxy-2-(4-methylthiazol-2-yl)pyrimidin-4-amine]",++ (++ means 200 nM-1000 nM)
11,"COc1cc(NC2CCC(C)(C)CC2)nc(-n2ccc(C)n2)n1 [IN11055-078-P1, N-(4,4-dimethylcyclohexyl)-6-methoxy-2-(3-methyl-1H-pyrazol-1-yl)pyrimidin-4-amine]",+ (+ means >1 uM)
12,COc1cc(NC2CCC(F)CC2)nc(-n2nc(C)cc2C)n1 (centres unmarked) [IN11055-079-P1],+ (+ means >1 uM)
13,COc1cc(NC2CC3CCC2C3)nc(-c2nc(C)cs2)n1 (centres unmarked) [IN11055-087-P1],+ (+ means >1 uM)
14,Cc1csc(-c2nc(NC3CCC(F)(F)CC3)cc(OCc3cnco3)n2)n1 [IN11059-047-P1],+++ (+++ means <200 nM)
15,Cc1csc(-c2nc(NC3CCC(F)(F)CC3)cc(OCCNS(C)(=O)=O)n2)n1 [IN11059-052-P1],++ (++ means 200 nM-1000 nM)
16,Cc1ccn(-c2nc(NC3CCC(F)(F)CC3)cc([S+](C)[O-])n2)n1 (centres unmarked) [IN11059-069-P1],++ (++ means 200 nM-1000 nM)
17,CSc1cc(NC2CCC(F)(F)CC2)nc(-n2ccc(C)n2)n1 [IN11059-070-P1],++ (++ means 200 nM-1000 nM)
18,Cc1ccn(-c2nc(NC3CCC(F)(F)CC3)cc(S(C)(=O)=O)[n+]2[O-])n1 [IN11059-071-P1],+ (+ means >1 uM)
19,CC(=O)N(C)Cc1cc(NC2CCC(F)(F)CC2)nc(-c2nc(C)cs2)n1 [IN11059-090-P1],++ (++ means 200 nM-1000 nM)
20,Cc1csc(-c2nc(CN(C)C=O)cc(NC3CCC(F)(F)CC3)n2)n1 [IN11059-095-P1],++ (++ means 200 nM-1000 nM)
21,"CNCc1cc(NC2CCC(F)(F)CC2)nc(-c2nc(C)cs2)n1 [IN11059-096-P1, N-(4,4-difluorocyclohexyl)-6-((methylamino)methyl)-2-(4-methylthiazol-2-yl)pyrimidin-4-amine]",+ (+ means >1 uM)
22,CCOc1cc(NC2CCC(F)(F)CC2)nc(-n2ccc(C)n2)n1 [IN11063-005-P1],+ (+ means >1 uM)
23,"Cc1ccn(-c2cc(CN(C)C)cc(NC3CCC(F)(F)CC3)n2)n1 [IN11063-006-P1, N-(4,4-difluorocyclohexyl)-4-((dimethylamino)methyl)-6-(3-methyl-1H-pyrazol-1-yl)pyridin-2-amine]",++ (++ means 200 nM-1000 nM)
24,"COC(=O)NC(C)(C)c1cc(NC2CCC(F)(F)CC2)nc(-n2ccc(C)n2)c1 [IN11063-030-P1, methyl (2-(2-((4,4-difluorocyclohexyl)amino)-6-(3-methyl-1H-pyrazol-1-yl)pyridin-4-yl)propan-2-yl)carbamate]",+ (+ means >1 uM)
25,"Cc1cc(NC2CCC(F)(F)CC2)cc(-c2nc(C)cs2)c1 [IN11063-086-P2, N-(4,4-difluorocyclohexyl)-3-methyl-5-(4-methylthiazol-2-yl) aniline]",+ (+ means >1 uM)
